Read-outs that look alike come from different tables or passages of the source.
Assays:
Sp1 = Sp1 protein expression, stability and ubiquitination in LNCaP cells; assay type: cell-based; settings: for Sp1 protein half-life relative to DMSO control / Sp1 protein expression: LNCaP cells; for Sp1 ubiquitination: LNCaP cells expressing HA-ubiquitin and Flag-Sp1, 24 h; for Sp1 protein expression: Western blot
Protocol: (§1) Cells cultured in T25 flasks were collected by scraping, and cell pellets were washed once with PBS. Cells were lysed in a lysis buffer consisting of 1% SDS, 10 mM EDTA and 50 mM Tris-HCl, pH 8.1, in the presence of a commercial protease inhibitor cocktail from Aldrich-Sigma (2 mM AEBSF, 1 mM EDTA, 130 μM bestatin, 14 μM E-64, 1 μM leupeptin, and 0.3 μM aprotinin). Following a 10-sec sonication using 20% output in a Virsonic 300 sonicator (Virtis, Gardiner N.Y.) to disrupt cellular organelles and genomic DNA, cell lysates were centrifuged at 15,200×g for 15 minutes. One μL of the suspension was used for protein determination using a colorimetric BCA assay (Pierce, Rockford, Ill.), and to the remaining solution was added an equivalent volume of 2×SDS-polyacrylamide gel electrophoresis sample loading buffer (62.5 mM Tris-HCl, pH 6.8, 4% SDS, 5% β-mercaptoethanol, 20% glycerol, and 0.1% bromophenol blue), and boiled for 5 min. Equal amounts of proteins were resolved in 8% SDS-polyacrylamide gels, and transferred to nitrocellulose membranes using a semidry transfer cell. The transblotted membrane was washed twice with Tris-buffered saline containing 0.1% Tween 20 (TBST). After blocking with TBST containing 5% nonfat milk for 40 min, the membrane was incubated with the appropriate primary antibody in TBST-1% nonfat milk at 4° C. overnight. All primary antibodies were diluted 1:1000 in 1% nonfat milk-containing TBST. After treatment with the primary antibody, the membrane was washed three times with TBST for a total of 15 min, followed by incubation with goat anti-rabbit or anti-mouse Immunoglobulin G (IgG)-horseradish peroxidase conjugates (diluted 1:2000) for 1 h at room temperature and four washes with TBST for a total of 1 h. The immunoblots were visualized by enhanced chemiluminescence.
LNCaP cells were co-transfected with 5 μg each of Flag-Sp1 and HA-ubiquitin plasmids in an Amaxa Nucleofector using a LNCaP-specific nucleofector kit. These transiently transfected cells were seeded in 6-well plates at 2×10^5 per well. After 48-h incubation, cells were exposed to VES or TS-1 at the indicated concentration for 48 h, and lysed by a radioimmunoprecipitation assay lysis buffer (Santa Cruz Biotechnology) in the presence of a freshly prepared cocktail of phosphatase and protease inhibitors (2 mmol/L AEBSF, 1 mM EDTA, 130 μM bestatin, 14 μM E-64, 1 μM leupeptin, and 0.3 μM aprotinin, 2 mM imidazole, 1 mM sodium fluoride, 1.15 mM sodium molybdate, 1 mM sodium orthovanadate, and 4 mmol/L sodium tartrate dihydrate). After centrifugation at 13,000×g for 15 min, the supernatants were collected, preincubated with protein A/G agarose (Santa Cruz Biotechnology) for 15 min, and centrifuged at 1,000×g for 5 min. Supernatant (20 μL) were stored at 4° C. to be used as input, whereas the remaining supernatant was exposed to 4 μg of anti-Sp1 antibodies at 4° C. for 12 h, followed by protein A/G agarose beads at 4° C. for another 2 h. After brief centrifugation, immunoprecipitates were collected, washed with the aforementioned lysis buffer four times, suspended in 2×SDS sample buffer, and subjected to Western blot analysis with antibodies against HA and Flag.

[1] = test system: Akt, ERK, JNK and p38 phosphorylation in LNCaP cells; experiment: Western blot of kinase phosphorylation in LNCaP cells; assay type: cell-based
Protocol: as §1, with “All primary antibodies were diluted 1:1000 in 1% nonfat milk-containing TBST. After treatment with the primary antibody, the membrane was washed three times with TBST for a total of 15 min, followed by incubation with goat anti-rabbit or anti-mouse Immunoglobulin G (IgG)-horseradish peroxidase conjugates (diluted 1:2000) for 1 h at room temperature and four washes with TBST for a total of 1 h. The immunoblots were visualized by enhanced chemiluminescence.” left out

[2] = test system: Akt, ERK, JNK and p38 phosphorylation in PC-3 cells; experiment: Western blot of kinase phosphorylation in PC-3 cells; assay type: cell-based
Protocol: as §1, with “All primary antibodies were diluted 1:1000 in 1% nonfat milk-containing TBST. After treatment with the primary antibody, the membrane was washed three times with TBST for a total of 15 min, followed by incubation with goat anti-rabbit or anti-mouse Immunoglobulin G (IgG)-horseradish peroxidase conjugates (diluted 1:2000) for 1 h at room temperature and four washes with TBST for a total of 1 h. The immunoblots were visualized by enhanced chemiluminescence.” left out

[3] = test system: AR and its target gene product PSA in LNCaP cells; experiment: Western blot of AR and PSA expression in LNCaP cells; assay type: cell-based; settings: LNCaP cells, 72 h of incubation, 2.5% FBS, Western blot, read-out: concentration reducing expression of AR and PSA by 50%
Protocol: as §1

[4] = test system: normal prostate epithelial cells (PrECs); experiment: MTT viability assay, normal prostate epithelial cells
Protocol: (§2) LNCaP androgen-dependent (p53^+/+) and PC-3 androgen-nonresponsive (p53^−/−) prostate cancer cells were purchased from the American Type Culture Collection (Manassas, Va.), and cultured in RPMI 1640 medium containing 10% heat-inactivated FBS. […] All cell types were cultured at 37° C. in a humidified incubator containing 5% CO2. Cells in log phase growth were harvested by trypsinization for use in the MTT viability assay. LNCaP cells were plated in poly-D-lysine coated culture flasks in order to assist cell adherence to the surface. Prior to drug treatment, cells were plated in a density of 12,000 cells/cm^2 surface area in the respective culture medium for 24-48 h, followed by individual test agents in 2.5% FBS-supplemented RPMI medium.

[5] = test system: normal prostate epithelial cells (PrECs)
Protocol: as §2

IC50 ([3]; Homo sapiens) [µM]	Structure (SMILES)	Sp1 protein half-life relative to DMSO control (Sp1)	Sp1 ubiquitination (Sp1)	Sp1 protein expression (Sp1)	phosphorylation levels of Akt, ERK, JNK, p38 [1]	phosphorylation levels of Akt, ERK, JNK, p38 [2]	antiproliferative effect on PrECs relative to malignant cells [4]	antiproliferative effect on PrECs relative to malignant cells [5]	IC50 [3] [µM]
5	Cc1c(C)c2c(c(C)c1OC(=O)CCC(=O)O)CCC(C)(CCCC(C)CCCC(C)C)O2 (centres unmarked) [TS-1, succinic acid mono-[2-(4,8-dimethyl-nonyl)-2,5,7,8-tetramethylchroman-6-yl]ester]	shortened half-life	increased the extent of Sp1 ubiquitination	reduce Sp1 levels	dose-dependent reduction in the phosphorylation levels of all four kinases examined	also noted in PC-3 cells	resistant		
	Cc1c(C)c2c(c(C)c1OC(=O)CCC(=O)O)CC[C@@](C)(CCC[C@H](C)CCC[C@H](C)CCCC(C)C)O2 [VES, α-tocopheryl succinate]	shortened half-life	increased the extent of Sp1 ubiquitination	reduce Sp1 levels	dose-dependent reduction in the phosphorylation levels of all four kinases examined	also noted in PC-3 cells		resistant	≥ 10
